Source: ChEMBL document CHEMBL5523703, “Modulators for palmitoylation of proteins and small molecules” (Eur J Med Chem, 2024)

How the values were obtained:
[1] = organism: Homo sapiens; assay: Binding affinity to ZDHHC (unknown origin) assessed as inactivation constant
[2] = target: T1, Protein-cysteine N-palmitoyltransferase HHAT (Homo sapiens, UniProt Q5VTY9); assay: Inhibition of HHAT (unknown origin)
[3] = target: T2, Carnitine O-palmitoyltransferase 1, liver isoform (Homo sapiens, UniProt P50416); assay: Inhibition of CPT1 (unknown origin)
T2 sequence (P50416 whole entry): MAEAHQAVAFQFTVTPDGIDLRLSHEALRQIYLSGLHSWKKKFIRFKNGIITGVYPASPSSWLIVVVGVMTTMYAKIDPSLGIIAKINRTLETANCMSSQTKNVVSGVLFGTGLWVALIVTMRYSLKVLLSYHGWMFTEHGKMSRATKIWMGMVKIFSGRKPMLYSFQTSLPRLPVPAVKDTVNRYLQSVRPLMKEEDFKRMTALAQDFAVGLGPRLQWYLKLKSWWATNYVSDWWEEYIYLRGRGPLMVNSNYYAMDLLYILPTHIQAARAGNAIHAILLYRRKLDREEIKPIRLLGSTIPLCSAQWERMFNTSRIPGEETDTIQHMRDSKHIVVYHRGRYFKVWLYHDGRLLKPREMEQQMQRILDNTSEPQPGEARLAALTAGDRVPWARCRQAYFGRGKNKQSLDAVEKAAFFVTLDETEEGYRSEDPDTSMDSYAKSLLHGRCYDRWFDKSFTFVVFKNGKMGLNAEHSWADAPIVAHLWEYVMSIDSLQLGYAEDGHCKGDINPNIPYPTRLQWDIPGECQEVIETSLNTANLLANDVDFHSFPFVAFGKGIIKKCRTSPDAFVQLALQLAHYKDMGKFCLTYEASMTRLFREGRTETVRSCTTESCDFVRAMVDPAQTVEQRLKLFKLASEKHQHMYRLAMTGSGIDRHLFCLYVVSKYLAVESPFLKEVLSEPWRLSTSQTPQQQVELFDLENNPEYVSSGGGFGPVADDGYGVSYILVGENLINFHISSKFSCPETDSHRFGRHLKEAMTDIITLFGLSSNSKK

[4] = target: Carnitine O-palmitoyltransferase 2, mitochondrial (Rattus norvegicus, UniProt P18886); assay: Inhibition of rat CPT2
Chain of Carnitine O-palmitoyltransferase 2, mitochondrial (P18886 whole entry): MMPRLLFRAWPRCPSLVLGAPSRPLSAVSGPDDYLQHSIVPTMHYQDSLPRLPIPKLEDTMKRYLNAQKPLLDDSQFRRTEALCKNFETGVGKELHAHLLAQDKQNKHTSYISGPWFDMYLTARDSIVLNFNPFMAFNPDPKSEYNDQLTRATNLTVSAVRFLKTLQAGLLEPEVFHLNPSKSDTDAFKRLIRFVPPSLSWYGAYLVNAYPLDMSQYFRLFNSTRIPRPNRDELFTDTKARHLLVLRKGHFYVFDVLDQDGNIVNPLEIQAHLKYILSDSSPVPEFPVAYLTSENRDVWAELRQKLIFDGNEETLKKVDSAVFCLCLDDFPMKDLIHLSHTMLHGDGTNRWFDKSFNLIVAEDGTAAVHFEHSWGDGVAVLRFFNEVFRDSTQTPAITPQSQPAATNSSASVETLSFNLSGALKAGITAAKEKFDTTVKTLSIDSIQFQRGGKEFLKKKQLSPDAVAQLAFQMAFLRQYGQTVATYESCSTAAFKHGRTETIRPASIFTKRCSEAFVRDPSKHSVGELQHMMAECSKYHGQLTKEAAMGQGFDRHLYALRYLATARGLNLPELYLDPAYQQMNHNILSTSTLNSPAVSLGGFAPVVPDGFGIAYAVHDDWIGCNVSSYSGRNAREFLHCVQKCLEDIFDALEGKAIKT

[5] = test system: HCC4006; assay: cells; conditions: Homo sapiens, HCC4006, 24 h
[6] = target: T3, Carnitine O-palmitoyltransferase 1, liver isoform (Rattus norvegicus, UniProt P32198); assay: Inhibition of rat hepatocytes CPT1A; assay type: cell-based, Hepatocyte
T3 sequence (P32198 whole entry): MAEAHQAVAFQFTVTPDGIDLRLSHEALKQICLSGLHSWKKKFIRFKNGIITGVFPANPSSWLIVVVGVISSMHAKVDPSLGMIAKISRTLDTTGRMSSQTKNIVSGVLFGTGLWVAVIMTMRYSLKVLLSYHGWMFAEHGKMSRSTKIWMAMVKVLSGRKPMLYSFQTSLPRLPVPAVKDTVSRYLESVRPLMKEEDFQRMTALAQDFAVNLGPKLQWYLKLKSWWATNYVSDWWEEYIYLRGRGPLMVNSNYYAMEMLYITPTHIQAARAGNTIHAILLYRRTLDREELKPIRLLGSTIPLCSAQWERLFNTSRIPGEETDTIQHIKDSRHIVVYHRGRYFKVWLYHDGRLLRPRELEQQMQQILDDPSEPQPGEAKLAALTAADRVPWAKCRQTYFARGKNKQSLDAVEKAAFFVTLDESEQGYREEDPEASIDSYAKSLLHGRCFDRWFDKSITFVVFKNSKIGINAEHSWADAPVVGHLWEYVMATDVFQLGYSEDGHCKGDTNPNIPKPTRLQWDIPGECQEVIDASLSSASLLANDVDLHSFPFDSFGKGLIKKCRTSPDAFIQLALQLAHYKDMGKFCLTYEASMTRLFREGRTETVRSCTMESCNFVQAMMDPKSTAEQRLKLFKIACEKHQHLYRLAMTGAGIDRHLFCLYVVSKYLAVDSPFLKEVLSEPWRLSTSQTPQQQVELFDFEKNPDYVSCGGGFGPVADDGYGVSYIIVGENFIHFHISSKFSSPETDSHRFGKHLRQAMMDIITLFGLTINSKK

[7] = target: T4, Carnitine O-palmitoyltransferase 1, muscle isoform (Homo sapiens, UniProt Q92523); assay: Inhibition of CPT1B (unknown origin) in KB cells; assay type: cell-based
T4 sequence (Q92523 whole entry): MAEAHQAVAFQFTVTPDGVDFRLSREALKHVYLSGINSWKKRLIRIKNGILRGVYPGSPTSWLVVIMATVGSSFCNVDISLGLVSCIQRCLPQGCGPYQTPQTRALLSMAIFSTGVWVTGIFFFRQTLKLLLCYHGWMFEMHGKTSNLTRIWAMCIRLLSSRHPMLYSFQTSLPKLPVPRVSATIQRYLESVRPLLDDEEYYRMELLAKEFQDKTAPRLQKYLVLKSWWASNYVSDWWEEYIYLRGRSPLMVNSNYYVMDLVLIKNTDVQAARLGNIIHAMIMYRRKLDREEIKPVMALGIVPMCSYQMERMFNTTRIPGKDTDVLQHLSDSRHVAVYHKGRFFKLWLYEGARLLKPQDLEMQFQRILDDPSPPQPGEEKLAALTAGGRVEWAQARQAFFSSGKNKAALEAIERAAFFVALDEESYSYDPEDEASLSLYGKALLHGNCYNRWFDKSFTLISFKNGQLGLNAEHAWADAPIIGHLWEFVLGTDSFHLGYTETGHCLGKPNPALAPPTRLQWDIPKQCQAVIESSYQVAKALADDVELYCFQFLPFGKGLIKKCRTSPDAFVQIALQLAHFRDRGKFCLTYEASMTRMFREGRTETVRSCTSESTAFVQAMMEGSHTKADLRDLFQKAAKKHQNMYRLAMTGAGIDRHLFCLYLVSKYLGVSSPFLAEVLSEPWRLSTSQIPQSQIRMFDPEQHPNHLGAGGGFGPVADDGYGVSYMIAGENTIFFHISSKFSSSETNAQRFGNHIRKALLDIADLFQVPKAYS

[8] = Inhibition of N-terminal 6His-tagged human TEAD1 YAP-binding domain (219 to 435 residues) expressed in Escherichia coli BL21 (DE3)
[9] = target: T1, Protein-cysteine N-palmitoyltransferase HHAT; assay: Inhibition of His-tagged HHAT (unknown origin) transfected in HEK293FT cells; assay type: cell-based
[10] = target: T5, Membrane-bound ghrelin O-acyltransferase MBOAT4 (Mus musculus, UniProt P0C7A3); assay: Inhibition of N-terminal His-tagged mouse GOAT expressed in baculovirus infected insect cells
T5 sequence (P0C7A3 whole entry): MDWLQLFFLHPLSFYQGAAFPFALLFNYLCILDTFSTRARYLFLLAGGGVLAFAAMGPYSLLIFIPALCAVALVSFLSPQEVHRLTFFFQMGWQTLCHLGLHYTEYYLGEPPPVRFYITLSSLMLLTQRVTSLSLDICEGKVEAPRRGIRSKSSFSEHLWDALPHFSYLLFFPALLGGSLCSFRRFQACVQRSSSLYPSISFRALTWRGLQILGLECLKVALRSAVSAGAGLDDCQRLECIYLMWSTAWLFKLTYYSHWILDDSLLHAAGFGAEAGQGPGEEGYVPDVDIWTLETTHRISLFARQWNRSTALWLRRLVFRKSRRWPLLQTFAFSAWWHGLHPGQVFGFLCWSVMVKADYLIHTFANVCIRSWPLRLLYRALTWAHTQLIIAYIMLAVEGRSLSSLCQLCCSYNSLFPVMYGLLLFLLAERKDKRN

[11] = target: Carnitine O-palmitoyltransferase 1, liver isoform (Homo sapiens) (UniProt P50416); assay: Inhibition of CPT1 (unknown origin) at 10 uM relative to control
[12] = target: Palmitoyltransferase ZDHHC9 (Homo sapiens, UniProt Q9Y397); assay: Binding affinity to ZDHHC9 (unknown origin) assessed as inhibition constant
Chain of Palmitoyltransferase ZDHHC9 (Q9Y397 whole entry): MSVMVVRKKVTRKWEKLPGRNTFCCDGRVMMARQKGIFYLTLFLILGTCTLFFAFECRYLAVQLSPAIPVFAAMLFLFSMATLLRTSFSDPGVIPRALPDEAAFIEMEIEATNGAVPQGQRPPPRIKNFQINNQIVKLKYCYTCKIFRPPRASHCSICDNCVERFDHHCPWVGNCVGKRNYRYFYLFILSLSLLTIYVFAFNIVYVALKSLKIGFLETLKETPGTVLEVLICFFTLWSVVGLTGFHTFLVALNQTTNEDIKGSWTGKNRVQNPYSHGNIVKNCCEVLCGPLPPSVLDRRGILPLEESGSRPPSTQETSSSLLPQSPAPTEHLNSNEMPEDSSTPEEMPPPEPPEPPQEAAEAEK

[13] = target: T1, Protein-cysteine N-palmitoyltransferase HHAT; assay: Binding affinity to His-tagged HHAT (unknown origin) transfected in HEK293FT cells assessed as inhibition constant; assay type: cell-based
[14] = target: Serine palmitoyltransferase 3 (Homo sapiens, UniProt Q9NUV7); assay: Inhibition of SPTLC3 (unknown origin)
Chain of Serine palmitoyltransferase 3 (Q9NUV7 whole entry): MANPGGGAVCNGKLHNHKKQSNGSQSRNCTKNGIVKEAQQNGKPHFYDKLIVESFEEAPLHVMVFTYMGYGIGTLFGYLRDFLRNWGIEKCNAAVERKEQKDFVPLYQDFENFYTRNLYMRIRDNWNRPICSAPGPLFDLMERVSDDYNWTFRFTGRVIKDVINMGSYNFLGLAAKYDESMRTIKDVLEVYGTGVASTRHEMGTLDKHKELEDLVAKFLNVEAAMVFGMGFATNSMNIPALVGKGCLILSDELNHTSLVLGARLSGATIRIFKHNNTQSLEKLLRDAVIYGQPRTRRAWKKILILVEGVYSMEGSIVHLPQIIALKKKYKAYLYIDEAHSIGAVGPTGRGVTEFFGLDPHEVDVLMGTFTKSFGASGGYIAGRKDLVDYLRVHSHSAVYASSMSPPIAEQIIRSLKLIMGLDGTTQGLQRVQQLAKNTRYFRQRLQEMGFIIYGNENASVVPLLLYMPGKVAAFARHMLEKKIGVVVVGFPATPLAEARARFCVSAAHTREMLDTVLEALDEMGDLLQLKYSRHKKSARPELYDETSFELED

[15] = target: T6, Membrane-bound ghrelin O-acyltransferase MBOAT4 (Homo sapiens, UniProt Q96T53); assay: Inhibition of GOAT (unknown origin)
T6 sequence (Q96T53 whole entry): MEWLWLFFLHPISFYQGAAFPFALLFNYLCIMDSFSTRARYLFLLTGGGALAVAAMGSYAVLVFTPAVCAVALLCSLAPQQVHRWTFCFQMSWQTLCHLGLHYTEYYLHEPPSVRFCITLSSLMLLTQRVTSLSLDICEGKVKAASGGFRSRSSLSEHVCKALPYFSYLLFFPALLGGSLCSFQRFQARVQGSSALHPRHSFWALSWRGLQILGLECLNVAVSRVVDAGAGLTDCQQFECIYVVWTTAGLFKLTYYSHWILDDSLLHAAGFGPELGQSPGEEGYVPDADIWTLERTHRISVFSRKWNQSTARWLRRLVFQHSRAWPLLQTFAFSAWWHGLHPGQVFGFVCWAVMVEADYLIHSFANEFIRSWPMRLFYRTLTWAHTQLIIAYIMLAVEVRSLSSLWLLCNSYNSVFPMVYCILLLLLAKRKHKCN

T1 sequence (Q5VTY9 whole entry, canonical isoform): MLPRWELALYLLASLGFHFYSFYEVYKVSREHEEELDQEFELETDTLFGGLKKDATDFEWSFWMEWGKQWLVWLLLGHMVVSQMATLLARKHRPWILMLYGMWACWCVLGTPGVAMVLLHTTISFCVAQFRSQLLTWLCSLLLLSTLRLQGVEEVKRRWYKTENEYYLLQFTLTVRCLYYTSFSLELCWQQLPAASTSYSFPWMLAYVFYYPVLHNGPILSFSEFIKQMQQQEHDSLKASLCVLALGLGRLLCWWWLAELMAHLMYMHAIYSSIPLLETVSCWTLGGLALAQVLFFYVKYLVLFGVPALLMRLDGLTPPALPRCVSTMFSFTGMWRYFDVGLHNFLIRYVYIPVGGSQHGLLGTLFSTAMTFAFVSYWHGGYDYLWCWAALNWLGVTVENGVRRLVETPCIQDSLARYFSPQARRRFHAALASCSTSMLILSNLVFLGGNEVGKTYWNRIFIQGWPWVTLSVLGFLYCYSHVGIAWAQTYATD

## N[C@H]1CONC1=O
[1]
  Kinact: 0.83 M⁻¹ s⁻¹

## CCC(C)CNCC(=O)N1CCc2sccc2C1c1cccc(C)c1 (stereo unspecified)
[2]
  IC50: 460 nM

## N[C@H](C(=O)O)c1ccc(O)cc1 [OXFENICINE]
[3]
  IC50: 11000 nM
[4]
  IC50: 79000 nM

## COc1cc(C(=O)N2CC[C@H](NC(=O)c3ccccc3OC(F)(F)F)c3c2cnn3C(C)C)cnc1OC
[5]
  IC50: 3.9 nM

## COc1ccc(Cl)cc1S(=O)(=O)N1CCc2ccc(C(=O)Nc3ccc(C(=O)O)cc3)cc21
[6]
  IC50: 1090 nM
[7]
  IC50: 21 nM

## C=CC(=O)N1CCCN(CCCOCc2ccccc2)C1
[8]
  IC50: 160 nM

## C=CCNCC(=O)N1CCc2sccc2C1COc1ccc(Cl)c(C)c1 (stereo unspecified)
[9]
  IC50: 180 nM

## CCCCCCN(C(C)=O)C(C(=O)NCc1ccccc1)c1ccc2cc(O)ccc2c1 (stereo unspecified)
[10]
  IC50: 7540 nM

## CCCCCCCCCCCCCC[C@]1(C(=O)O)CO1
[11]
  inhibition: 66%

## CC(C)Cc1ccc(C(C)CN2CCN(CCCC[C@H]3CNCCN3CCc3cc(C(F)(F)F)cc(C(F)(F)F)c3)C[C@@H]2Cc2ccc(O)cc2)cc1 (stereo partly specified)
[12]
  Ki: 66000 nM

## CCCCCCCC(=O)NC[C@H](NC(=O)[C@H](CO)NC(=O)CN)C(=O)N[C@@H](Cc1ccccc1)C(=O)N[C@@H](CC(C)C)C(=O)N[C@@H](CO)C(=O)N1CCC[C@H]1C(=O)N[C@@H](CCC(=O)O)C(=O)N[C@@H](Cc1cnc[nH]1)C(=O)N[C@@H](CCC(N)=O)C(=O)N[C@@H](CCCCN)C(=O)N[C@@H](C)C(=O)N[C@@H](CCC(N)=O)C(=O)N[C@@H](CCC(N)=O)C(=O)N[C@@H](CCCNC(=N)N)C(=O)N[C@@H](CCCCN)C(=O)N[C@@H](CCC(=O)O)C(=O)N[C@@H](CO)C(=O)N[C@@H](CCCCN)C(=O)N[C@@H](CCCCN)C(=O)N1CCC[C@H]1C(=O)N1CCC[C@H]1C(=O)N[C@@H](C)C(=O)N[C@@H](CCCCN)C(=O)N[C@@H](CC(C)C)C(=O)N[C@@H](CCC(N)=O)C(=O)N1CCC[C@H]1C(=O)N[C@@H](CCCNC(=N)N)C(=O)O
[10]
  IC50: 200 nM

## CCC(C)CNCC(=O)N1CCc2sccc2C1COc1cccc(C)c1 (stereo unspecified)
[13]
  Ki: 7400 nM

## COc1ccc(C(=O)N2CC[C@H](NC(=O)c3ccccc3OC(F)(F)F)c3c2cnn3CCCCCNC(=O)CCC2=[N+]3C(=Cc4c(C)cc(C)n4[B-]3(F)F)C=C2)cc1OC
[14]
  IC50: 0.8 nM

## Cc1nc(N)c(CCC2CCN(C(=O)[C@H](C)NC(=O)c3ccnn3C)CC2)c(Cl)n1
[15]
  IC50: 60 nM
